Reference: ChEMBL document CHEMBL1201862, “PubChem BioAssay data set” (2004)
Calls of active or inactive are those of the source.

Assays:
[1] = biological target: T1, Sentrin-specific protease 1 (Homo sapiens, UniProt Q9P0U3); test: SENP1 catalytic domain blockers, concentration series – biochemical, kinetic FRET, dose response (AID 651697); format: functional; details: read-out: IC50_Mean
[2] = biological target: T1, Sentrin-specific protease 1; test: Dose response confirmation of small molecule inhibitors of the catalytic domain of the SUMO protease, SENP1 in a FRET assay.; format: functional; details: read-out: IC50_Mean
[3] = biological target: T2, Beta-lactamase (Pseudomonas aeruginosa, UniProt Q79MP6); test: inhibition of IMP-1 beta-lactamase activity – biochemical, epi-absorbance, selectivity assay for VIM-2 inhibitor project, dose response (AID 1920)
[4] = biological target: Beta-lactamase (Salmonella choleraesuis (strain SC-B67), UniProt Q5J463); test: Epi-absorbance-based counterscreen for selective VIM-2 inhibitors: dose response biochemical high throughput screening assay to identify inhibitors of TEM-1 serine-beta-lactamase.
[5] = biological target: T2, Beta-lactamase; test: […] counterscreen for selective VIM-2 inhibitors: dose response biochemical high throughput screening assay to identify inhibitors of IMP-1 metallo-beta-lactamase.
[6] = biological target: Cytochrome P450 2D6 (Homo sapiens, UniProt P10635);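 also: CYP2D6 member of a cytochrome P450 panel assay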
[7] = biological target: Cytochrome P450 2C9 (Homo sapiens, UniProt P11712)
[8] = biological target: T3, Streptokinase A (Streptococcus pyogenes serotype M1, UniProt P10520); test: viability-normalized secreted streptokinase activity reduction – plasminogen activation absorbance, OD405, dose response (AID 1914); format: functional, Streptococcus pyogenes M1 GAS;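 also: secreted streptokinase activity via plasminogen activation per viability signal from cell pellet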
T3 sequence (P10520 whole entry): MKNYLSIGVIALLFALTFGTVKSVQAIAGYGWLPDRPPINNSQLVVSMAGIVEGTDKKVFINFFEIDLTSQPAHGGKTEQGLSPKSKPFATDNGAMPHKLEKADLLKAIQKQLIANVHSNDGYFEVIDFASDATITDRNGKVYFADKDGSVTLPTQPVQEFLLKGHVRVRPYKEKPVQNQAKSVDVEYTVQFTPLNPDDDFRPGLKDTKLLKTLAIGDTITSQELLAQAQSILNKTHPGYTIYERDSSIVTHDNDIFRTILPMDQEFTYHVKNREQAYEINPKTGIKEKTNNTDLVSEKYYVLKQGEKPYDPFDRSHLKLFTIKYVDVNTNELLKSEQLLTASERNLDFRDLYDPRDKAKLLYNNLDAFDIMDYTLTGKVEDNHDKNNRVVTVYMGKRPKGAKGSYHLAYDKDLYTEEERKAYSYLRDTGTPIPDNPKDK

[9] = rise of 2N DNA cells, HeLa – IC50, dose response (AID 1117349); format: functional, cell-based
[10] = biological target: Cytochrome P450 2C19 (Homo sapiens, UniProt P33261); test: Cytochrome panel assay with activity outcomes. Panel member name: p450-cyp2c19 Compounds with AC50 equal or less than 10 uM are considered active; format: functional
[11] = biological target: T4, Low molecular weight phosphotyrosine protein phosphatase (Homo sapiens, UniProt P24666); format: functional; details: read-out: IC50_Mean
T4 sequence (P24666 whole entry): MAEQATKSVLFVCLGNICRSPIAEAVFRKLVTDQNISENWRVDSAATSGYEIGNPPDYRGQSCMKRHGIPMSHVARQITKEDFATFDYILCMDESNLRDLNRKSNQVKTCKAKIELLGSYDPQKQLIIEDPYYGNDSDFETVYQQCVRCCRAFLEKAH

[12] = Luminescence Cell-Based Dose Response HTS to Identify Inhibitors of 5'UTR Stem-Loop Driven Prion Protein mRNA Translation in H4 Neuroglioblastoma Cells. [Related pubchem assays: 1827 (Project Summary), 1813 (Primary HTS)]; format: functional
[13] = rise of 4N DNA cells, HeLa – IC50, dose response (AID 1117351); format: functional, cell-based
[14] = system: Streptococcus sp. 'group A'; test: Streptococcus pyogenes SK(-)GAS viability under kanamycin – luminescence, BacTiterGlo, confirmation, counter-screen for streptokinase expression inhibitor project, dose response (AID 1900); format: functional, organism-based
[15] = system: Streptococcus; test: GAS UMAA2166 growth inhibition – luminescence, BacTiterGlo, counter-screen for streptokinase expression inhibitor project, dose response (AID 1915); format: functional, organism-based;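 also: potency for reduction of bacterial viability or growth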
[16] = system: BJ; test: growth inhibition of engineered Ras-driven BJ cells – cell-based, alamar blue fluorescence, cherrypicked samples, dose response (AID 2631); format: functional; details: Homo sapiens;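 also: confirmatory dose-response assay in RAS-dependent BJ fibroblasts engineered with TERT, LT and ST, with cytotoxicity read by fluorescence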
[17] = biological target: T5, Cytochrome P450 1A2 (Homo sapiens, UniProt P05177);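 also: PubChem cytochrome P450 panel assay, CYP1A2 panel member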
T5 sequence (P05177 whole entry): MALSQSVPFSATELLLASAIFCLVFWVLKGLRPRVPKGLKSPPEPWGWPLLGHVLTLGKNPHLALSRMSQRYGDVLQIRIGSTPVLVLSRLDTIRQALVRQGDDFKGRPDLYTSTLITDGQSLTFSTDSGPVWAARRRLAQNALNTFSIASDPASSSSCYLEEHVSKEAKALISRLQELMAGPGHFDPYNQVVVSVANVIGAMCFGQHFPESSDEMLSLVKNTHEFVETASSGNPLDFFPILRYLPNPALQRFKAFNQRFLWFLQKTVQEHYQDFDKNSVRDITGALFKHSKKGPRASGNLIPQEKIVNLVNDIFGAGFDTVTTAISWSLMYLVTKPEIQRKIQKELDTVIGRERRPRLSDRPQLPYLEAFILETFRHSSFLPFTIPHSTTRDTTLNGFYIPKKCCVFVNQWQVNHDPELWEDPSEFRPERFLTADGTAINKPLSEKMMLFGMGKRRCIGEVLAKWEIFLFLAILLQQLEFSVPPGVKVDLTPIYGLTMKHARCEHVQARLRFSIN

[18] = biological target: T4, Low molecular weight phosphotyrosine protein phosphatase; format: functional; details: read-out: IC50_Mean; remark: listed apart in the source
[19] = reduced cellular PGC1a acetyl-lysine signal – cell-based, cherry-picked samples, dose response (AID 720514); format: functional;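 also: potency may reflect raised or lowered acetylation signal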
[20] = luciferase reporter signal suppression in cells – H4 neuroglioma cells, luminescence, dose response (AID 1990); format: functional, cell-based
[21] = alpha-synuclein stem-loop luciferase translation blockers – H4 neuroglioma cells, luminescence, confirmation (AID 1988); format: functional, cell-based
[22] = biological target: Protein S100-A4 (Homo sapiens, UniProt P26447); test: human S100A4 peptide interaction inhibition curves – biochemical, fluorescence polarization, cherry-picked hits, dose response (AID 687001); format: functional
[23] = biological target: Broad substrate specificity ATP-binding cassette transporter ABCG2 (Homo sapiens, UniProt Q9UNQ0); test: blockers of JC-1 export by ABCG2 – Ig-MXP3 cells, flow cytometry, dose response (AID 1690); format: functional
[24] = biological target: ATP-dependent translocase ABCB1 (Homo sapiens, UniProt P08183); test: inhibition of P-gp mediated JC-1 efflux – Jurkat-DNR cells, flow cytometry, dose response (AID 1689); format: functional
Chain of ATP-dependent translocase ABCB1 (P08183 whole entry): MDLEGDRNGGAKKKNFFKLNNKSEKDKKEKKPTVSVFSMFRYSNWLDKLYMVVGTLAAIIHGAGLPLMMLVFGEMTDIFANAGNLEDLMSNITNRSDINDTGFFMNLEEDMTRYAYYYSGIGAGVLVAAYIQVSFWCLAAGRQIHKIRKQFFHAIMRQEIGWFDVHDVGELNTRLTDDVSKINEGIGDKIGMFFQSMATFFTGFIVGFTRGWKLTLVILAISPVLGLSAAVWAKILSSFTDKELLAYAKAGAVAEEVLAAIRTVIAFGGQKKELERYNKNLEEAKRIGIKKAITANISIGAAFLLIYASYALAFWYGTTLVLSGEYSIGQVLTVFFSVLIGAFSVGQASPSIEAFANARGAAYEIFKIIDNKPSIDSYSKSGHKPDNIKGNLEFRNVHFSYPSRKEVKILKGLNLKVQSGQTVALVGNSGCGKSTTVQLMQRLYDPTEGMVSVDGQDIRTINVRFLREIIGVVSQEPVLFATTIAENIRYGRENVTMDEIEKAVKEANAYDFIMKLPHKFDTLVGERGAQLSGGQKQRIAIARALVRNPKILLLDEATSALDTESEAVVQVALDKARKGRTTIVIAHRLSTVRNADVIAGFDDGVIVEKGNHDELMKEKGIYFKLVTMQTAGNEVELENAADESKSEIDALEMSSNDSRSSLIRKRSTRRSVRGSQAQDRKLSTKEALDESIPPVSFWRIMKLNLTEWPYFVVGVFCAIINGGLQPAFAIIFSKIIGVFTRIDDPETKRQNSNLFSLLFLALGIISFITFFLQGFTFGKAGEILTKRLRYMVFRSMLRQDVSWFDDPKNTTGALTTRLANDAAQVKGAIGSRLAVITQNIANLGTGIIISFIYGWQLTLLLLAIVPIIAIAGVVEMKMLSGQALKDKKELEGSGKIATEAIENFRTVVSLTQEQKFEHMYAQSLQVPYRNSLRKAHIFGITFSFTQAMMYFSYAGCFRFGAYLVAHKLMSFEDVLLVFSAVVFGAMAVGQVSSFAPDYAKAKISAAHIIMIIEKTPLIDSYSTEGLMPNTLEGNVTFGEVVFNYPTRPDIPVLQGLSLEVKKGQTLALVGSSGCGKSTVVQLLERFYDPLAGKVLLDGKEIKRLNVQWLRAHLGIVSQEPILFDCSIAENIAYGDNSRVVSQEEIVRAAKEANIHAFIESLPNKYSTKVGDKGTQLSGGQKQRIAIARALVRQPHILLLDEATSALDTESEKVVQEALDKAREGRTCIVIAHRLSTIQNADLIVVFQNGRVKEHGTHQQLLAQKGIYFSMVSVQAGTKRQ

T2 sequence (Q79MP6 whole entry): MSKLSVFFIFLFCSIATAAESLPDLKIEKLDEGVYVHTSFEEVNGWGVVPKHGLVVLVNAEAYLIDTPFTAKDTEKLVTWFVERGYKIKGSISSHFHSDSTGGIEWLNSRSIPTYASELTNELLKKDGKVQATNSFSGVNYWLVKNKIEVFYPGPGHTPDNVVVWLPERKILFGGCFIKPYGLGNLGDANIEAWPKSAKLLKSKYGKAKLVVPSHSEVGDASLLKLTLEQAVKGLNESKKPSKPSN
T1 sequence (Q9P0U3 whole entry, the tested form may be a part): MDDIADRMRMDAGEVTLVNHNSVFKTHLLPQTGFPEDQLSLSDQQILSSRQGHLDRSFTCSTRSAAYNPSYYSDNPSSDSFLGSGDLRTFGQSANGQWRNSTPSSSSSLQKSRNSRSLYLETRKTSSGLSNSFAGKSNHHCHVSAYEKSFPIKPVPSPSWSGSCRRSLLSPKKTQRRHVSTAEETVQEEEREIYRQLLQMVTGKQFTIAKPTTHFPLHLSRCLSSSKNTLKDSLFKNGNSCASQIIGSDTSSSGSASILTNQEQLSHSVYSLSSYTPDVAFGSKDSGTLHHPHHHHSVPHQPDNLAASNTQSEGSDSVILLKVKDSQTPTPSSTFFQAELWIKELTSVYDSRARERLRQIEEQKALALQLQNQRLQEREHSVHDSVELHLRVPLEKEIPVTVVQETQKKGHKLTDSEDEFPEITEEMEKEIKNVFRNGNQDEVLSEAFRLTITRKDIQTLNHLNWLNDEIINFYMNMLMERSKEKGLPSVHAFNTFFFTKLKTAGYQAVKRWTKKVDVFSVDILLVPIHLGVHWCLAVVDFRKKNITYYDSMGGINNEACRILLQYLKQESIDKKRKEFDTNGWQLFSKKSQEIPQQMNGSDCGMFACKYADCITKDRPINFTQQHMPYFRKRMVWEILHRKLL
Chain of Broad substrate specificity ATP-binding cassette transporter ABCG2 (Q9UNQ0 whole entry): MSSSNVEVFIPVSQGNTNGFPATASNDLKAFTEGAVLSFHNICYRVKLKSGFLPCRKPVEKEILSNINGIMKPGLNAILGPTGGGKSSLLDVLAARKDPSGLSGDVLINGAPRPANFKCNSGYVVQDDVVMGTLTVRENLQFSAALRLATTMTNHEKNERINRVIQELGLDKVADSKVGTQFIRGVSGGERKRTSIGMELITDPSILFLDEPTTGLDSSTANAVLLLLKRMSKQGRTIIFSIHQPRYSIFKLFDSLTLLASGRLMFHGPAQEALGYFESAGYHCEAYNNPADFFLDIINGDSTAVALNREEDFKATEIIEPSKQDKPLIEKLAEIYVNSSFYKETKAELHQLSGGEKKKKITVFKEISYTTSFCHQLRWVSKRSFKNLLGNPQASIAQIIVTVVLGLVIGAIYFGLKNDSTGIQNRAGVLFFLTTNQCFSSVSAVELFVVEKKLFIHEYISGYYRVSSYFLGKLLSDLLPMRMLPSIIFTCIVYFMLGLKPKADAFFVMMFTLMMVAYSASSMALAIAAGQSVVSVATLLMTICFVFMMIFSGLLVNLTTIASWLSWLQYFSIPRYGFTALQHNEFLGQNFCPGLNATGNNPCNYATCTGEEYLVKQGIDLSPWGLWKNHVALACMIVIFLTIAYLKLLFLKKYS
Chain of Beta-lactamase (Salmonella choleraesuis (strain SC-B67), UniProt Q5J463) (Q5J463 whole entry): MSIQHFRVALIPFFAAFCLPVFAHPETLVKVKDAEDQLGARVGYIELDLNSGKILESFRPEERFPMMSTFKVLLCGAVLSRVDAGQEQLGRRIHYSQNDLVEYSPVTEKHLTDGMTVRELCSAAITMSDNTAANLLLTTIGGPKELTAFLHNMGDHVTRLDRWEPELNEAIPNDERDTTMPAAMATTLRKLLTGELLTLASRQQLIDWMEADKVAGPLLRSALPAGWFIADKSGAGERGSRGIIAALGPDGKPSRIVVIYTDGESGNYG
Chain of Cytochrome P450 2D6 (P10635 whole entry): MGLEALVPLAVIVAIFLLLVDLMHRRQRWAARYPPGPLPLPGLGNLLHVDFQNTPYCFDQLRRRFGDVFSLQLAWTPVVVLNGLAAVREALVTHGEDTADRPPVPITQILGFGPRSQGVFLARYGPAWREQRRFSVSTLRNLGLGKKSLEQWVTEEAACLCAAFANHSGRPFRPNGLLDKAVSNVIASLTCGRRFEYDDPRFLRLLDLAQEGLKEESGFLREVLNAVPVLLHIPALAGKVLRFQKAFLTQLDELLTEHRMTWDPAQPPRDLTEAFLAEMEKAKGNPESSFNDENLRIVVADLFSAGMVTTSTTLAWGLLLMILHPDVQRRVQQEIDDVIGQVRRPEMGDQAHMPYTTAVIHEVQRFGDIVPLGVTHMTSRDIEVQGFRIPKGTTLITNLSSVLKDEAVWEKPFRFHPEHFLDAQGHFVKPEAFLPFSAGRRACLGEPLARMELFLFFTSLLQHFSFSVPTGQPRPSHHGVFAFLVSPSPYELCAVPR
Chain of Protein S100-A4 (P26447 whole entry): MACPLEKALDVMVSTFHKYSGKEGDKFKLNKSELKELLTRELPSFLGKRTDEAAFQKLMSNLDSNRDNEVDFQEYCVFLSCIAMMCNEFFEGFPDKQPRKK
Chain of Cytochrome P450 2C9 (P11712 whole entry): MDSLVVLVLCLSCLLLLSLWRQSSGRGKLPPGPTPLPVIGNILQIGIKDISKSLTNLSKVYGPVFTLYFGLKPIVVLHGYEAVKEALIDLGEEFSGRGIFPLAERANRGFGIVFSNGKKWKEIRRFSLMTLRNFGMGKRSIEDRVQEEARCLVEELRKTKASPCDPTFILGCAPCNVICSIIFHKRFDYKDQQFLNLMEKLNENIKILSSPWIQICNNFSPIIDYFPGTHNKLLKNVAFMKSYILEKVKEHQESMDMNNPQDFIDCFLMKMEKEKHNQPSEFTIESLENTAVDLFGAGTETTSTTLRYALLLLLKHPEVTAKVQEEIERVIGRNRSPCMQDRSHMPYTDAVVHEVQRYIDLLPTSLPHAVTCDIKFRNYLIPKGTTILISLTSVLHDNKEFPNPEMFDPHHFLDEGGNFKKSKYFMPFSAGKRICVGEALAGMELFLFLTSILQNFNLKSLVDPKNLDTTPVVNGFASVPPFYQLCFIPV
Chain of Cytochrome P450 2C19 (P33261 whole entry): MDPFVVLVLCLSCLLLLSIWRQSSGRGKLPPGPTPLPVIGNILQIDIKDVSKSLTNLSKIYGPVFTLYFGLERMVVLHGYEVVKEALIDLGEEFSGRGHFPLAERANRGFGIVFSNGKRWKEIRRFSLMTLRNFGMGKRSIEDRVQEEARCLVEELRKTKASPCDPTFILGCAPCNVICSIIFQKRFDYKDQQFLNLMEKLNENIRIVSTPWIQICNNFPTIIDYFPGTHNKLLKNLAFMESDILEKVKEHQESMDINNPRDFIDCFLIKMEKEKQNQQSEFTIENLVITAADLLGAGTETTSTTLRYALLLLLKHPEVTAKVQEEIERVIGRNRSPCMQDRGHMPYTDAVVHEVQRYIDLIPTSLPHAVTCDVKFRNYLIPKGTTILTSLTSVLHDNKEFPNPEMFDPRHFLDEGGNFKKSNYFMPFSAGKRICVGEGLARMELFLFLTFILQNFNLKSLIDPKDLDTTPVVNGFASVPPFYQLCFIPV

Question: Which results are given for `N=c1oc2ccc([N+](=O)[O-])cc2cc1C(=O)NCc1ccccc1`?
Answer: IC50 [1]: 9.4 µM (active); IC50 [2]: 2.45 µM (active)

Question: Which IC50 [3] does the source give for `Cc1ccc(S(=O)(=O)n2[nH]c(=O)cc2NC(=O)c2cccs2)cc1` here?
Answer: > 59.6 µM (inactive)

Question: What about the IC50 [4] of the same molecule?
Answer: > 59.6 µM (inactive)

Question: And the IC50 [5]?
Answer: > 59.6 µM (inactive)

Question: For `CCc1nc(N)nc(N)c1-c1ccc(Cl)cc1` [PYRIMETHAMINE], which AC50 [6] is on record?
Answer: 7.94 µM (inconclusive)

Question: What about the AC50 [7] of the same molecule?
Answer: inactive

Question: What about the EC50 [8] of the same molecule?
Answer: > 150 µM (not active)

Question: And the IC50 [9]?
Answer: > 10 µM (inactive)

Question: And the AC50 [10]?
Answer: inactive

Question: What about the IC50 [11] of the same molecule?
Answer: 16.5 µM (active)

Question: What about the EC50 [12] of the same molecule?
Answer: 10.5 µM (active)

Question: And the IC50 [13]?
Answer: > 10 µM (inactive)

Question: What about the EC50 [14] of the same molecule?
Answer: 3.09 µM (active)

Question: What about the EC50 [15] of the same molecule?
Answer: 51.2 µM (active)

Question: What about the EC50 [16] of the same molecule?
Answer: > 133 µM (inactive)

Question: And the AC50 [17]?
Answer: 10 µM (inconclusive)

Question: What about the IC50 [18] of the same molecule?
Answer: 32.9 µM (inactive)

Question: What about the AC50 [19] of the same molecule?
Answer: 23 µM (active)

Question: And the EC50 [20]?
Answer: 3.81 µM (active)

Question: What about the EC50 [21] of the same molecule?
Answer: 200 nM (active)

Question: For `CC1(C)c2ccccc2N2CC(=O)N(CC(N)=O)C21C` (centres undefined), which AC50 [22] is on record?
Answer: 1.93 µM (active)

Question: Which EC50 [23] does the source give for `COc1ccc(CN2C(=O)c3ccccc3C2=O)cc1C(=O)Nc1ccccc1N1CCOCC1` here?
Answer: 340 nM (inactive)

Question: What about the EC50 [24] of the same molecule?
Answer: 428 nM (active)
